Laboratory results: PubChem BioAssay AID248 (DTP/NCI, 2004)
Toxic doses and inconclusive results are not listed. No stated cut-off is given here; in the data, active means T/C of 150% or more; inactive means T/C below 125%.

Test system: L1210 leukemia ip in BDF1 mice, survival T/C
Assay: NCI In Vivo Anticancer Drug Screen. Data for tumor model L1210 Leukemia (intraperitoneal) in B6D2F1 (BDF1) mice
Conditions: endpoint: mean survival time, higher = longer survival
Summary of the method: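 Antitumor effect is assessed in tumor-bearing animals. Survival in the compound arm is compared with a vehicle-dosed control arm and expressed as their quotient.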

Measured: T/C

C1CCCC(=NN=C2CCCCCCC2)CCC1
inactive: dose: 100.0 mg/kg/injection, schedule: Q01DX009 (ip), vehicle: saline with Tween-80 89 % of control | dose: 100.0 mg/kg/injection, schedule: Q04DX003 (ip), vehicle: saline 95 % of control | dose: 200.0 mg/kg/injection, schedule: Q01DX009 (ip), vehicle: saline with Tween-80 93 % of control | dose: 200.0 mg/kg/injection, schedule: Q04DX003 (ip), vehicle: saline 89 % of control | dose: 400.0 mg/kg/injection, schedule: Q01DX009 (ip), vehicle: saline with Tween-80 89 % of control | dose: 400.0 mg/kg/injection, schedule: Q04DX003 (ip), vehicle: saline 95 % of control

OC1(c2ccccc2)CCN(C/C=C/c2ccccc2Cl)CC1
inactive: dose: 100.0 mg/kg/injection, schedule: Q04DX003 (ip), vehicle: saline with Tween-80 92 % of control | dose: 200.0 mg/kg/injection, schedule: Q04DX003 (ip), vehicle: saline with Tween-80 93 % of control | dose: 400.0 mg/kg/injection, schedule: Q04DX003 (ip), vehicle: saline with Tween-80 90 % of control

N=c1c(-c2ccccc2)cc2ccccc2n1O
inactive: dose: 75.0 mg/kg/injection, schedule: Q01DX001 (ip), vehicle: other 103 % of control | dose: 150.0 mg/kg/injection, schedule: Q01DX001 (ip), vehicle: other 101 % of control | dose: 300.0 mg/kg/injection, schedule: Q01DX001 (ip), vehicle: other 98 % of control
